{
  "source": "patent US20060188945A1",
  "about": "“Screening methods” (priority 2004, published 2006)",
  "key": {"[1]": {"biological_target": "T1, full-length human GHR (Homo sapiens, UniProt P10912)", "T1 construct": "plasmid DNA encoding the full-length human GHR; expressed in transfected cells; host or cells: WRL-68 cells", "T1 sequence (P10912 19-638)": "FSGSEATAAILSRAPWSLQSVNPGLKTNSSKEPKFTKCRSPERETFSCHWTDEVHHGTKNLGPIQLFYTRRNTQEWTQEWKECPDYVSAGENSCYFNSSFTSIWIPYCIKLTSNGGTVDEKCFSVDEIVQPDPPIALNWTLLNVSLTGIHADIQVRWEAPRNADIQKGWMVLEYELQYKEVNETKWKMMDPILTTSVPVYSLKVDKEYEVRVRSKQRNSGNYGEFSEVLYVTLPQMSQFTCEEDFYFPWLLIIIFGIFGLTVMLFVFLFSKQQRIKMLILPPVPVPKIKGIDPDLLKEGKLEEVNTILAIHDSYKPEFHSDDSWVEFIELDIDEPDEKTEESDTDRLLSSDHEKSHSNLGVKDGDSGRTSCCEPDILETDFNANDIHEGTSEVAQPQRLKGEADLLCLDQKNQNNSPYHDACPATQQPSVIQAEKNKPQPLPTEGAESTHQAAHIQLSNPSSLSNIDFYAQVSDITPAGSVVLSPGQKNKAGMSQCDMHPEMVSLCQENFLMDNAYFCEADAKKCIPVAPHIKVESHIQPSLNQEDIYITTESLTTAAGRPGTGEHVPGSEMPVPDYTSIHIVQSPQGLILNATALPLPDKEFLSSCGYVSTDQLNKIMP", "experiment": "Immunofluorescence of subcellular distribution and internalization of growth hormone receptor", "assay_type": "cell-based", "settings": "WRL-68 cells transfected with human GHR; immunofluorescence using Mab263; 10-100 nM GH or 2 μM BVT.3693", "description": "WRL-68 cells were cultured in EMEM medium with NaHCO3 (Statens Veterinärmedicinska Anstalt, Uppsala, Sweden), supplemented with 10% fetal bovine serum (FBS), 2% L-Glutamine, 1% Pyruvate, and non-essential acids (NEA), all from GIBCO, at 37° C. in 5% CO2.\nTransfection: Cells were transfected with plasmid DNA encoding the full-length human GHR (pMB 1288, 2 μg/μl) using DOTAP Liposomal Transfection Reagent (Roche), according to the manufacturers instructions. WRL-68 cells in T75 flasks were transfected with 10 μg DNA for each flask. 5 μl (10 μg) DNA was diluted with 250 μl OPTIMEM1 medium (GIBCO), and mixed with 75 μl DOTAP reagent diluted in 175 μl OPTIMEM1 medium. The mixture was incubated for 10 minutes and then mixed with 10 ml OPTIMEM1 medium. Cells were washed once and then incubated for 4 hours with the DNA/DOTAP transfection mix. The transfection reagents were removed and fresh culture medium was added. Cells were re-seeded into new culture dishes the following day.\nStimulation: 3×10^4 cells were seeded on chamber slides in eight-well dishes and grown for two days. […] After treatment, the cells were rinsed twice with ice-cold PBS. Fixation was performed with 4% paraformaldehyde for 20 minutes.\nStaining with rabbit antiserum: The chamber slides were washed twice by immersion of the slides in a container with 0.05% TBS-Tween. […]"}, "[2]": {"biological_target": "T2, membrane bound GHR on a human osteosarcoma cell line (Homo sapiens, UniProt P10912)", "T2 construct": "endogenous in cells", "T2 sequence (P10912 19-638)": "T1 sequence (P10912 19-638)", "experiment": "DELFIA assay for determination of receptor on cell surface", "assay_type": "cell-based", "settings": "stimulated for 1.5 hours with increasing concentrations, Eu-labeled anti GH-rec antibody BB117, FIG. 2", "experimental": "The following method was used to quantify the number of GH receptors on the cell surface after stimulation with different compounds.\nOn day 1, WRL-68 cells were seeded at a density of 15,000 cells per well and incubated under standard cell culture conditions.\nOn day 3, cells were washed with serum-free medium and incubated 1 hour prior to stimulation with a dose-response of BVT.3693. The cells were then washed with ice-cold PBS (Dulbecco PBS-A) and fixated with 4% paraformaldehyde on ice for 20 minutes. Thereafter the plates were washed with PBS and stored in a refrigerator until used. […]\nOn day 4, the plates were washed with PBS using a DELFIA plate washer. […] The amount of Europium fluorescence was determined by reading in a Victor analysis instrument.\nTo correlate the amount of Europium fluorescence measured (which fluorescence is proportional to the number of GH receptors present on the cell surface) to the number of cells attached to the bottom of the well after all the washing steps, we developed an internal standard. […] Instead, we developed a method to quantify the amount of DNA in the wells as an internal standard. […]\n10,000 cells per well were seeded the day before stimulation. […] Receptor quantification was performed using an Eu-labeled anti GH-rec antibody BB117, as described above (simplified protocol)."}},
  "data": [
    {"molecule": "Cc1ccc(S(N)(=O)=O)cc1NC(=O)c1ccc(Br)o1", "note": "[BVT.3693, N-[5-(aminosulfonyl)-2-methylphenyl]-5-bromo-2-furamide]", "values": [
      {"measurement": "subcellular distribution of GHR after stimulation", "setting": "[1]", "value": "intracellular staining, with both a nuclear localisation and a cytoplasmic localisation of the receptor"},
      {"measurement": "amount of GHR on the surface of the cells", "setting": "[2]", "value": "dose dependent reduction"}
    ]}
  ]
}
